Experimental data from patent US9758524B2, “4-imidazopyridazin-1-yl-benzamides as Btk inhibitors” (Merck Sharp & Dohme B.V., priority 2011, dated 2017).
“And” between values parts separate entries of the source, which are not always exact repeats. Equal values may be shown once. Read-outs that look alike come from different tables or passages of the source.

Legend:
FynT enzyme = FynT enzyme (Homo sapiens (Human), UniProt P06241); test: FynT enzyme activity (IMAP fluorescence polarization assay); assay type: biochemical; details: 60 min pre-incubation, 0.2 μM ATP
In short: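 Human FynT pre-incubated with compounds 60 min at room temperature, then reacted 2 h at room temperature with fluorescein-labelled p34cdc2 peptide (100 nM final). Stopped with IMAP binding solution; fluorescence polarization read after 60 min. Activity as % of ±ATP control difference; EC50 by curve fitting.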

Btk enzyme (His-Btk) = Btk enzyme (His-Btk) (Homo sapiens (Human), UniProt Q06187); test: Btk enzyme activity (IMAP fluorescence polarization assay)
Lck enzyme = Lck enzyme (Homo sapiens (Human), UniProt P06239); test: Lck enzyme activity (IMAP fluorescence polarization assay)
Src enzyme = Src enzyme (Homo sapiens (Human), UniProt P12931); test: Src enzyme activity (IMAP fluorescence polarization assay); details: read-out: EC50 Src activity values; IMAP, 60 min pre-incubation, 4 μM ATP
Lyn enzyme = Lyn enzyme (Homo sapiens (Human), UniProt P07948); test: Lyn enzyme activity (IMAP fluorescence polarization assay)
[1] = read-out: EC50 Btk activity values, IMAP, 60 min pre-incubation, 5 μM ATP, bin bound in nM
[2] = read-out: EC50 Lck activity values, IMAP, 60 min pre-incubation, 6 μM ATP, bin bound in μM
[3] = read-out: EC50 Lyn activity values, 60 min pre-incubation, 2 μM ATP, bin bound in μM
[4] = IMAP, 60 min pre-incubation, 5 μM ATP, bin bound in nM
[5] = IMAP, 60 min pre-incubation, 6 μM ATP, bin bound in μM
[6] = EC50 Lyn activity values, 60 min pre-incubation, 2 μM ATP, bin bound in nM
[7] = EC50 Lyn activity values, 60 min pre-incubation, 2 μM ATP, bin bound in μM
[8] = IMAP, 60 min pre-incubation, 5 μM ATP, bin bound in μM

FynT enzyme, sequence (P06241 other isoform, or with tags, fused parts or gaps): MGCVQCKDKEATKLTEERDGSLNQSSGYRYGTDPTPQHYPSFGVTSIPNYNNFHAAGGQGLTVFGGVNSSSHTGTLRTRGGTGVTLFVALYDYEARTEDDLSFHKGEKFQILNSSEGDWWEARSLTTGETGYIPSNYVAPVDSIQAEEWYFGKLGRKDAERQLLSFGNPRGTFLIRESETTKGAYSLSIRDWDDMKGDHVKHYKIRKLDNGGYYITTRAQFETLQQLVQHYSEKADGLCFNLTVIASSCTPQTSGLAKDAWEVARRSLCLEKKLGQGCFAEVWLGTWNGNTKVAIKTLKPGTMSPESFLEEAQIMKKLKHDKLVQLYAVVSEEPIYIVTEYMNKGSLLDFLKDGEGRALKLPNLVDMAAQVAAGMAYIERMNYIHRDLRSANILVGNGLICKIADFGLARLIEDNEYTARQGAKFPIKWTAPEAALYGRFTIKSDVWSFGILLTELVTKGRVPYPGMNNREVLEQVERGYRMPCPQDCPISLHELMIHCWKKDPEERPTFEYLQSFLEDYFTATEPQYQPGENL
Src enzyme, sequence (P12931 whole entry, looked up): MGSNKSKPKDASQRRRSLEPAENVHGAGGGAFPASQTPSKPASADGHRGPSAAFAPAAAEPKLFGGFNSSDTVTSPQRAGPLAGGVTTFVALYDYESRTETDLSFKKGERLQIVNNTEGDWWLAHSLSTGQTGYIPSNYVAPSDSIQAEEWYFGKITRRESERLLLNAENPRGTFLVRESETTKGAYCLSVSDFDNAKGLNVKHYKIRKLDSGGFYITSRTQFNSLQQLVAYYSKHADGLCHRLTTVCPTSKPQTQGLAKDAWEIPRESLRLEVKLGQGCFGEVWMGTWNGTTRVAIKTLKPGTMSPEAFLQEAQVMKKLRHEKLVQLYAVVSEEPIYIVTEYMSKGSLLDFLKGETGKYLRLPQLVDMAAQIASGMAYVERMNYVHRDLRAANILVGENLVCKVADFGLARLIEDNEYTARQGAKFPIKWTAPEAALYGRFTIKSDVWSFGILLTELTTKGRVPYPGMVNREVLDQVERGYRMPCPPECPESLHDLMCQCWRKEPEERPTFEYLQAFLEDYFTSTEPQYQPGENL
Btk enzyme (His-Btk), sequence (Q06187 whole entry): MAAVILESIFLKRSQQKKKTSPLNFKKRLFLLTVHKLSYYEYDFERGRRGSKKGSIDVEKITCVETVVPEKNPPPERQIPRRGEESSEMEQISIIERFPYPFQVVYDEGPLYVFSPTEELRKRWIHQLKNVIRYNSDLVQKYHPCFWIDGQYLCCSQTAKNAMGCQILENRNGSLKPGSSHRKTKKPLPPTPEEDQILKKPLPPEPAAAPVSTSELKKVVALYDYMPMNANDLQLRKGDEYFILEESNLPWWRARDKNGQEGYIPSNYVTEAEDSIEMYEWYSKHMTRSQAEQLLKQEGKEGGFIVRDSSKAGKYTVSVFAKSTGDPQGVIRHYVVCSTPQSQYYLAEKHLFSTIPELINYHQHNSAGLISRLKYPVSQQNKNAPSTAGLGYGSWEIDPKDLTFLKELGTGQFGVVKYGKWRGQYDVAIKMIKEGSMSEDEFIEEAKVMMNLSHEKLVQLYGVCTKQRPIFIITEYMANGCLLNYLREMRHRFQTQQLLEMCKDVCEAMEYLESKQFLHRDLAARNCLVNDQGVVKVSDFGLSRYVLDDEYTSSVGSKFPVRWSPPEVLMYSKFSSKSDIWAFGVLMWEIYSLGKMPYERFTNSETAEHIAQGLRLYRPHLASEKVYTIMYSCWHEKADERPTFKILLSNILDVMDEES
Lyn enzyme, sequence (P07948 whole entry): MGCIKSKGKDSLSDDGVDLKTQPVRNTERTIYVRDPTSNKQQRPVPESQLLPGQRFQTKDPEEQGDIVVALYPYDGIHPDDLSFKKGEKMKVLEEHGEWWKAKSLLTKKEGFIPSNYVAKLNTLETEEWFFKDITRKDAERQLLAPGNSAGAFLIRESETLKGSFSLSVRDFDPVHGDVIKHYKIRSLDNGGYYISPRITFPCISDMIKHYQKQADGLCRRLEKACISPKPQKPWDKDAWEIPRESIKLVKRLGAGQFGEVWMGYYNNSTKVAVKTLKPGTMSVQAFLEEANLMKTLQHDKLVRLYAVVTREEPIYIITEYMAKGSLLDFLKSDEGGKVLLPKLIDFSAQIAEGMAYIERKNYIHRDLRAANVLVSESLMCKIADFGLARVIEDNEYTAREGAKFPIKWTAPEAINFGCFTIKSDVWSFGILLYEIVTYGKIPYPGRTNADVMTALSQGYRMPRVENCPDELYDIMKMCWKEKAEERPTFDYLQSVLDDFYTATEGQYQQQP
Lck enzyme, sequence (P06239 whole entry): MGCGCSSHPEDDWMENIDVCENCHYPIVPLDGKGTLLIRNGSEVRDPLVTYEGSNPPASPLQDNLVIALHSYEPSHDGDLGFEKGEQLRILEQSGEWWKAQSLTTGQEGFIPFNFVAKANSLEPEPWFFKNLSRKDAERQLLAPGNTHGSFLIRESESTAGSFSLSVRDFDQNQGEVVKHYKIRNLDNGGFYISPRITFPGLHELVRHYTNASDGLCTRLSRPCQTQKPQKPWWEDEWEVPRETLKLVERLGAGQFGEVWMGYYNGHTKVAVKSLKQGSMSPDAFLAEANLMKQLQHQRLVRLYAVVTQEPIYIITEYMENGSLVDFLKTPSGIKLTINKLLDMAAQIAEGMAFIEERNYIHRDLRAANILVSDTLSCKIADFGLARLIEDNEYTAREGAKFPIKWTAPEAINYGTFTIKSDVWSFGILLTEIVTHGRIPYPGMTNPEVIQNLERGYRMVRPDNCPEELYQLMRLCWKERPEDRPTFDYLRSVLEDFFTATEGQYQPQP

| Structure (SMILES) | EC50 (FynT enzyme) | EC50 (Btk enzyme (His-Btk); [1]) | EC50 (Lck enzyme; [2]) | EC50 (Src enzyme) | EC50 (Lyn enzyme; [3]) | EC50 (Btk enzyme (His-Btk)) | EC50 Btk activity values (Btk enzyme (His-Btk); [4]) | EC50 (Lck enzyme) | EC50 Lck activity values (Lck enzyme; [5]) | EC50 Lyn activity values (Lyn enzyme; 60 min pre-incubation, 2 μM ATP, bin bound in μM) | EC50 (Lyn enzyme; [6]) | EC50 (Lyn enzyme; [7]) | EC50 Btk activity values (Btk enzyme (His-Btk); [8]) |
| --- | --- | --- | --- | --- | --- | --- | --- | --- | --- | --- | --- | --- | --- |
| CC#CC(=O)N1CCC[C@H]1c1nc(-c2ccc(C(=O)Nc3ccccn3)c(F)c2)c2c(N)nccn12 [Example 50, (S)-4-(8-amino-3-(1-but-2-ynoylpyrrolidin-2-yl)imidazo[1,5-a]pyrazin-1-yl)-2-fluoro-N-(pyridin-2-yl)benzamide] | ≥ 1000 nM |  | ≥ 1 µM | ≥ 1000 nM | ≥ 1 µM | 10 to 100 nM | <100 nM |  |  |  |  |  |  |
| CC#CC(=O)N1CCCC[C@H]1c1nc(-c2ccc(C(=O)Nc3ccccn3)cc2)c2c(N)nccn12 [Example 45, (S)-4-(8-amino-3-(1-but-2-ynoylpiperidin-2-yl)imidazo[1,5-a]pyrazin-1-yl)-N-(pyridin-2-yl)benzamide] | ≥ 1000 nM | < 10 nM | ≥ 1 µM | ≥ 1000 nM | ≥ 1 µM |  |  |  |  |  |  |  |  |
| C=CC(=O)N1CCC[C@H]1c1nc(-c2ccc(C(=O)Nc3ccccn3)c(F)c2)c2c(N)nccn12 [Example 13, (S)-4-(3-(1-acryloylpyrrolidin-2-yl)-8-aminoimidazo[1,5-a]pyrazin-1-yl)-2-fluoro-N-(pyridin-2-yl)benzamide] | ≥ 1000 nM | < 10 nM | ≥ 1 µM | ≥ 1000 nM | ≥ 1 µM |  |  |  |  |  |  |  |  |
| Nc1nccn2c([C@@H]3CCCN3C(=O)c3cc(Cl)ncn3)nc(-c3ccc(C(=O)Nc4ccccn4)cc3)c12 [Example 33, (S)-4-(8-Amino-3-(1-(6-chloropyrimidine-4-carbonyl)pyrrolidin-2-yl)imidazo[1,5-a]pyrazin-1-yl)-N-(pyridin-2-yl)benzamide] | ≥ 1000 nM | < 10 nM | ≥ 1 µM | ≥ 1000 nM | ≥ 1 µM |  |  |  |  |  |  |  |  |
| CC#CC(=O)N1CCC[C@H]1c1nc(-c2ccc(C(=O)Nc3nccs3)cc2)c2c(N)nccn12 [Example 60, (S)-4-(8-amino-3-(1-but-2-ynoylpyrrolidin-2-yl)imidazo[1,5-a]pyrazin-1-yl)-N-(thiazol-2-yl)benzamide] | ≥ 1000 nM |  |  | ≥ 1000 nM |  | 10 to 100 nM | <100 nM | 0.1 to 1 µM | <1 µM |  | ≥ 0.1 µM | < 1 µM and ≥ 1 µM |  |
| C=CC(=O)N1CCCC[C@H]1c1nc(-c2ccc(C(=O)Nc3ccccn3)cc2C)c2c(N)nccn12 [Example 68, 4-(3-((S)-1-acryloylpiperidin-2-yl)-8-aminoimidazo[1,5-a]pyrazin-1-yl)-3-methyl-N-(pyridin-2-yl)benzamide] | ≥ 1000 nM |  | ≥ 1 µM | ≥ 1000 nM | ≥ 1 µM | 100 to 1000 nM |  |  |  |  |  |  | <1000 nM |
| CN(C)C/C=C/C(=O)NCc1nc(-c2ccc(C(=O)Nc3ccccn3)cc2)c2c(N)nccn12 [Example 69, (E)-4-(8-amino-3-((4-(dimethylamino)but-2-enamido)methyl)imidazo[1,5-a]pyrazin-1-yl)-N-(pyridin-2-yl)benzamide] | ≥ 1000 nM |  | ≥ 1 µM | ≥ 1000 nM | ≥ 1 µM | 10 to 100 nM | <100 nM |  |  |  |  |  |  |
| COC/C=C/C(=O)N1CCCC[C@H]1c1nc(-c2ccc(C(=O)Nc3ccncn3)cc2)c2c(N)nccn12 [Example 86, (S,E)-4-(8-amino-3-(1-(4-methoxybut-2-enoyl)piperidin-2-yl)imidazo[1,5-a]pyrazin-1-yl)-N-(pyrimidin-4-yl)benzamide] | ≥ 1000 nM |  | ≥ 1 µM | ≥ 1000 nM | ≥ 1 µM | 100 to 1000 nM |  |  |  |  |  |  | <1000 nM |
| CCCc1ccnc(NC(=O)c2ccc(-c3nc([C@H](C)N(C)C(=O)/C=C/COC)n4ccnc(N)c34)cc2)c1 [Example 48, (S,E)-4-(8-amino-3-(1-(4-methoxy-N-methylbut-2-enamido)ethyl)imidazo[1,5-a]pyrazin-1-yl)-N-(4-propylpyridin-2-yl)benzamide] | ≥ 1000 nM | < 10 nM | ≥ 1 µM | ≥ 1000 nM | ≥ 1 µM |  |  |  |  |  |  |  |  |
| COC/C=C/C(=O)N1CCC[C@H]1c1nc(-c2ccc(C(=O)Nc3ccccn3)c(OC)c2)c2c(N)nccn12 [Example 103, (S,E)-4-(8-amino-3-(1-(4-methoxybut-2-enoyl)pyrrolidin-2-yl)imidazo[1,5-a]pyrazin-1-yl)-2-methoxy-N-(pyridin-2-yl)benzamide] | ≥ 1000 nM |  | ≥ 1 µM | ≥ 1000 nM | ≥ 1 µM | 10 to 100 nM | <100 nM |  |  |  |  |  |  |
| COC/C=C/C(=O)N1CCCC[C@H]1c1nc(-c2ccc(C(=O)Nc3nccc(C)n3)cc2)c2c(N)nccn12 [Example 88, (S,E)-4-(8-amino-3-(1-(4-methoxybut-2-enoyl)piperidin-2-yl)imidazo[1,5-a]pyrazin-1-yl)-N-(4-methylpyrimidin-2-yl)benzamide] | ≥ 1000 nM |  | ≥ 1 µM | ≥ 1000 nM | ≥ 1 µM | 100 to 1000 nM |  |  |  |  |  |  | <1000 nM |
| CC#CC(=O)N1CCCC[C@H]1c1nc(-c2ccc(C(=O)Nc3nccc(C)n3)cc2)c2c(N)nccn12 [Example 89, (S)-4-(8-amino-3-(1-but-2-ynoylpiperidin-2-yl)imidazo[1,5-a]pyrazin-1-yl)-N-(4-methylpyrimidin-2-yl)benzamide] | ≥ 1000 nM |  | ≥ 1 µM | ≥ 1000 nM |  | 10 to 100 nM | <100 nM |  |  |  |  | ≥ 1 µM |  |

Continued, values first:

| EC50 (FynT enzyme) | EC50 (Btk enzyme (His-Btk); [1]) | EC50 (Lck enzyme; [2]) | EC50 (Src enzyme) | EC50 (Lyn enzyme; [3]) | EC50 (Btk enzyme (His-Btk)) | EC50 Btk activity values (Btk enzyme (His-Btk); [4]) | EC50 (Lck enzyme) | EC50 Lck activity values (Lck enzyme; [5]) | EC50 Lyn activity values (Lyn enzyme; 60 min pre-incubation, 2 μM ATP, bin bound in μM) | EC50 (Lyn enzyme; [6]) | EC50 (Lyn enzyme; [7]) | EC50 Btk activity values (Btk enzyme (His-Btk); [8]) | Structure (SMILES) |
| --- | --- | --- | --- | --- | --- | --- | --- | --- | --- | --- | --- | --- | --- |
| ≥ 1000 nM | < 10 nM | ≥ 1 µM | ≥ 1000 nM | ≥ 1 µM |  |  |  |  |  |  |  |  | C=CC(=O)N1CCC[C@H]1c1nc(-c2ccc(C(=O)Nc3cc(F)ccn3)cc2)c2c(N)nccn12 [Example 42, (S)-4-(3-(1-acryloylpyrrolidin-2-yl)-8-aminoimidazo[1,5-a]pyrazin-1-yl)-N-(4-fluoropyridin-2-yl)benzamide] |
| ≥ 1000 nM | < 10 nM | ≥ 1 µM | ≥ 1000 nM | ≥ 1 µM |  |  |  |  |  |  |  |  | COC/C=C/C(=O)N1CCC[C@H]1c1nc(-c2ccc(C(=O)Nc3cc(C(F)(F)F)ccn3)cc2)c2c(N)nccn12 [Example 128, (S,E)-4-(8-amino-3-(1-(4-methoxybut-2-enoyl)pyrrolidin-2-yl)imidazo[1,5-a]pyrazin-1-yl)-N-(4-(trifluoromethyl)pyridin-2-yl)benzamide] |
| ≥ 1000 nM | < 10 nM | ≥ 1 µM | ≥ 1000 nM | ≥ 1 µM |  |  |  |  |  |  |  |  | CCCc1ccnc(NC(=O)c2ccc(-c3nc([C@@H]4CCCN4C(=O)/C=C/CN4CCCC4)n4ccnc(N)c34)cc2)c1 [Example 77, (S,E)-4-(8-amino-3-(1-(4-(pyrrolidin-1-yl)but-2-enoyl)pyrrolidin-2-yl)imidazo[1,5-a]pyrazin-1-yl)-N-(4-propylpyridin-2-yl)benzamide] |
| ≥ 1000 nM | < 10 nM |  | ≥ 1000 nM |  |  |  | 0.1 to 1 µM | <1 µM | <1 µM | 0.1 to 1 µM |  |  | C=CC(=O)N1CCC[C@H]1c1nc(-c2ccc(C(=O)Nc3cc(CCC)ccn3)cc2)c2c(N)nccn12 [Example 125, (S)-4-(3-(1-acryloylpyrrolidin-2-yl)-8-aminoimidazo[1,5-a]pyrazin-1-yl)-N-(4-propylpyridin-2-yl)benzamide] |
| ≥ 1000 nM | < 10 nM | ≥ 1 µM | ≥ 1000 nM | ≥ 1 µM |  |  |  |  |  |  |  |  | C=CC(=O)N1CCCC[C@H]1c1nc(-c2ccc(C(=O)Nc3cc(CCC)ccn3)c(F)c2)c2c(N)nccn12 [Example 26, (S)-4-(3-(1-Acryloylpiperidin-2-yl)-8-aminoimidazo[1,5-a]pyrazin-1-yl)-2-fluoro-N-(4-propylpyridin-2-yl)benzamide] |
| ≥ 1000 nM | < 10 nM | ≥ 1 µM | ≥ 1000 nM | ≥ 1 µM |  |  |  |  |  |  |  |  | CC#CC(=O)N1CCC[C@H]1c1nc(-c2ccc(C(=O)Nc3cc(C(C)C)ccn3)cc2)c2c(N)nccn12 [Example 102, (S)-4-(8-amino-3-(1-but-2-ynoylpyrrolidin-2-yl)imidazo[1,5-a]pyrazin-1-yl)-N-(4-isopropylpyridin-2-yl)benzamide] |
| ≥ 1000 nM | < 10 nM | ≥ 1 µM | ≥ 1000 nM | ≥ 1 µM |  |  |  |  |  |  |  |  | C=CC(=O)N1CCC[C@H]1c1nc(-c2ccc(C(=O)Nc3ccccn3)cc2)c2c(N)nccn12 [Example 1, (S)-4-(3-(1-Acryloylpyrrolidin-2-yl)-8-aminoimidazo[1,5-a]pyrazin-1-yl)-N-(pyridin-2-yl)benzamide] |
| ≥ 1000 nM | < 10 nM | ≥ 1 µM | ≥ 1000 nM | ≥ 1 µM |  |  |  |  |  |  |  |  | C=CC(=O)N1CCC[C@H]1c1nc(-c2ccc(C(=O)Nc3nccs3)cc2)c2c(N)nccn12 [Example 101, (S)-4-(3-(1-acryloylpyrrolidin-2-yl)-8-aminoimidazo[1,5-a]pyrazin-1-yl)-N-(thiazol-2-yl)benzamide] |
